# Assay results as given in article PMC7139549, “TLD1433 Photosensitizer Inhibits Conjunctival Melanoma Cells in Zebrafish Ectopic and Orthotopic Tumour Models” (Cancers, 2020).
# Assays:
# [1] = system: CRMM1 cells injected into the Duct of Cuvier of zebrafish embryos; assay: Zebrafish ectopic CM tumour model, CRMM1; type: in vivo, Zebrafish (Danio rerio); details: for PI (Fluorescence Intensity) / PI (Tumour Area) / Relative Tumour Burden as Measured by Fluorescence Intensity / Tumour Area: CRMM1, Ectopic Model; for PI (Fluorescence Intensity) / PI (Tumour Area): 0 vs 114 J.cm^−2
# Method: The zebrafish ectopic conjunctival melanoma tumour model has been described previously. In this model, around 200 fluorescent CM cells are injected into the Duct of Cuvier at 2 dpf, and then disseminate through the blood circulation and grow in the head and tail. To establish the orthotopic tumour model, around 100 red, (td)Tomato fluorescent CRMM1 or CRMM2 cells were injected RO at 2 dpf into tg(Fli:GFP/Casper), endothelial reporter transgenic zebrafish with green fluorescent vasculature and examined by fluorescent microscopy at day 1 and 4 after engraftment (Figure 6A). Tumour expansion at the injection site was measured as fluorescence intensity and tumour area.
# For cancer cell injection, two days post-fertilization (dpf), dechorionated zebrafish embryos were anaesthetized with 0.003% tricaine (Sigma) and plated on a 10 cm Petri dish covered with 1.5% of solidified agarose. CRMM1 and CRMM2 cells were suspended in PBS containing 2% polyvinylpyrrolidone (PVP; Sigma-Aldrich) with a concentration of 50,000 cells/µL and loaded into borosilicate glass capillary needles (1 mm O.D. × 0.78 mm I.D.; Harvard Apparatus). In the ectopic model, 200 (td)Tomato fluorescent CM cells were injected into the Duct of Cuvier or at 2 dpf, which led to dissemination through the blood circulation and outgrowth in the head and tail. In orthotopic tumour model, 100 (td)Tomato fluorescent CRMM1 or CRMM2 cells were injected RO in 2 dpf embryos using a Pneumatic Picopump and a manipulator (WPI). After injection, the embryos were incubated in a 34 °C incubator. Images were acquired at 1-, 2- and 4-days post injection (dpi) with a Leica M165 FC stereo fluorescence microscope. Tumor growth was quantified by calculating the total fluorescence intensity and area with the ZF4 pixel counting program (Leiden). Each experiment was performed at least 3 times with a group size of >30 embryos.
# Fluorescent CRMM1 and CRMM2 cells were injected at 2 dpf into the Duct of Cuvier (ectopic model) and behind the eye (orthotopic model) and TLD1433 was delivered by WA, IV and RO administration with or without a light treatment as described in 4.8. For the WA administration, the 4.6 nM TLD1433 solution was added to the tumour cells injected zebrafish at 2.5, 3.5, 4.5, 5.5 dpf and maintained for 12 h. At 3, 4, 5, 6 dpf, the fish water was refreshed, and after 1 h, embryos were exposed to green light for 90 min (21 mW/cm^2, 114 J/cm^2, 520 nm). For the IV and RO administration, 1 nL of 2.3 mM TLD1433 solution was injected via the dorsal vein or the RO site at 3, 4, 5, 6 dpf. After 1 h interval, the embryos were exposed to green light for 90 min (21 mW/cm^2, 114 J/cm^2, 520 nm). After treatment, the embryos images were acquired with a Leica M165 FC stereo fluorescence microscope. Tumor growth was quantified by calculating the total fluorescence intensity and area with the ZF4 pixel counting program (Leiden). Each experiment was performed at least 3 times with a group size of >30 embryos.
# other cell lines = system: other cell lines; design: method as in not given; details: reported for TLD1433 with other cell lines; ref not given; cited from earlier work
# [2] = Intravenous (1 nL of 2.3 mM), Light Dose 0 J.cm^−2, vs control dark group (100%)
# [3] = Intravenous (1 nL of 2.3 mM), Light Dose 114 J.cm^−2, vs control dark group (100%)
# [4] = Water (4.6 nM), Light dose 0 J.cm^−2, vs control dark group (100%)
# [5] = Water (4.6 nM), Light dose 114 J.cm^−2, vs control dark group (100%)
# [6] = CRMM1, ectopic model, IV 2.3 mM, light 114 J.cm^−2
# [7] = CRMM1, ectopic model, RO 2.3 mM, green light 114 J.cm^−2
smiles,measurement,setting,value
Cc1ccnc(-c2cc(C)ccn2)c1.Cc1ccnc(-c2cc(C)ccn2)c1.[Cl-].[Cl-].[Ru+2].c1csc(-c2ccc(-c3ccc(-c4nc5c6cccnc6c6ncccc6c5[nH]4)s3)s2)c1 [TLD1433],PI (Fluorescence Intensity),[1]; Intravenous (1 nL of 2.3 mM),1.6
same,PI (Tumour Area),[1]; Intravenous (1 nL of 2.3 mM),2.2
same,Relative Tumour Burden as Measured by Fluorescence Intensity,[1]; [2],94%
same,Tumour Area,[1]; [2],102%
same,Relative Tumour Burden as Measured by Fluorescence Intensity,[1]; [3],59%
same,Tumour Area,[1]; [3],46%
same,PI (Tumour Area),[1]; Retro orbital (1 nL of 2.3 mM),2.4
same,Tumour Area,"[1]; Retro orbital (1 nL of 2.3 mM), Light dose 0 J.cm^−2, vs control dark group (100%)",85%
same,Tumour Area,"[1]; Retro orbital (1 nL of 2.3 mM), Light dose 114 J.cm^−2, vs control dark group (100%)",36%
same,PI (Fluorescence Intensity),[1]; Retro-orbital (1 nL of 2.3 mM),1.6
same,Relative Tumour Burden as Measured by Fluorescence Intensity,"[1]; Retro-orbital (1 nL of 2.3 mM), Light Dose 0 J.cm^−2, vs control dark group (100%)",85%
same,Relative Tumour Burden as Measured by Fluorescence Intensity,"[1]; Retro-orbital (1 nL of 2.3 mM), Light Dose 114 J.cm^−2, vs control dark group (100%)",53%
same,PI (Fluorescence Intensity),[1]; Water (4.6 nM),1.0
same,PI (Tumour Area),[1]; Water (4.6 nM),1.0
same,Relative Tumour Burden as Measured by Fluorescence Intensity,[1]; [4],91%
same,Tumour Area,[1]; [4],103%
same,Relative Tumour Burden as Measured by Fluorescence Intensity,[1]; [5],89%
same,Tumour Area,[1]; [5],99%
same,inhibition of tumour area,[1]; [6],54%
same,inhibition of tumour fluorescence intensity,[1]; [6],41%
same,diminished fluorescence intensity,[1]; [7],47%
same,diminished tumour area,[1]; [7],64%
same,effect on tumour burden (in words),"[1]; CRMM1, ectopic model, WA at the MTD (4.6 nM), light 114 J.cm^−2",did not inhibit tumour burden
same,PI,other cell lines,> 1000
